Values of other authors in patent US20060286164A1 (priority 2004, published 2006).
Entries after “also recorded” stand apart in the source; their conditions may differ. Where two headings read alike, the source gives them in different places.

Experiments:
mouse = settings: in vivo, po
[1] = not given; remark: listed apart in the source
Guinea Pig = settings: in vivo, po
[2] = set by WHO from metabolic and toxicological data

For CC(C)Cc1ccc(C(C)C(=O)O)cc1 (racemic) [Ibuprofen, 2-(4-Isobutylphenyl)Propionic acid], the solubility in water is listed as “practically insoluble; also recorded: not soluble”.
For CC(C)Cc1ccc([C@H](C)C(=O)O)cc1 [(S)-(+)-Ibuprofen], the solubility in water is listed as “not soluble”.
In the case of CCO [Ethanol, Ethyl alcohol], the LD50 (mouse) is listed as 7.5 g/kg, the miscibility ([1]; chloroform, ether, glycerin and water) is listed as “miscible” and the LD50 (Guinea Pig) is listed as 5.56 g/kg.
For CCCCCCCC/C=C\CCCCCCCC(=O)O [Oleic acid, (Z)-9-Octadecenoic acid], the LD50 (rat; IV) is listed as 2.4 mg/kg.
In the case of CCOCCOCCO [Transcutol, Diethylene glycol monoethyl ether], the solubility in water is given as “soluble”, the solubility ([1]; ethanol, hexylene glycol and propylene glycol) is given as “soluble” and the solubility ([1]; vegetable oil) is given as “partially soluble”. The LD50 (rat; in vivo, po) was 7.5 mg/kg.
In the case of CC(O)CO (stereo not shown) [propylene glycol, Propylene glycol], the acceptable daily intake [2] is listed as “up to 25 mg/kg body weight”.
In the case of Vitamin E, the solubility in water is listed as “practically insoluble” and the solubility ([1]; acetone, ethanol, ether and vegetable oil) is listed as “freely soluble”.
